Measurements as given in patent US20260223850A1, “SUBSTITUTED PYRROLIDONE COMPOUND, PREPARATION METHOD THEREFOR, COMPOSITION AND APPLICATION THEREOF” (QINGDAO KINGAGROOT CHEMICAL COMPOUND CO., LTD., priority 2023, published 2026).

Columns and labels:
Assay type in all cases: in vivo
[1] = system: Echinochloa crusgalli; assay: Seedling stage sealing experiment for water-seeding; details: 120 g a.i./ha, 15 days, fresh weight control rate
[2] = system: Echinochloa phyllopogon; assay: as above; details: 120 g a.i./ha, 15 days, fresh weight control rate
Summary of the method: (§1)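 Read-out: 0–9 damage level from fresh-weight control rate (9 = completely dead, 1 = under 10%, 0 = no effect), averaged over triplicates, taken 15 days after spraying. Doses were 120, 60, 30 and 15 g a.i./ha, acetone/water solution, spray tower.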

[3] = system: Leptochloa chinensis; assay: as above; details: 120 g a.i./ha, 15 days, fresh weight control rate
Excerpt: (1) Seedling Stage Sealing Experiment for Water-Seeding:
The activity level criteria for plant damage (i.e., growth control rate) are as follows: • Level 9: completely dead; • Level 8: growth control rate greater than or equal to 90% and less than 100%; • Level 7: growth control rate greater than or equal to 80% and less than 90%; • Level 6: growth control rate greater than or equal to 70% and less than 80%; • Level 5: growth control rate greater than or equal to 50% and less than 70%; • Level 4: growth control rate greater than or equal to 30% and less than 50%; • Level 3: growth control rate greater than or equal to 20% and less than 30%; • Level 2: growth control rate greater than or equal to 10% and less than 20%; • Level 1: growth control rate less than 10%; • Level 0: no effect.
The above growth control rates are fresh weight control rates.
Echinochloa phyllopogon, Digitaria sanguinalis, Huaidao (rice cultivar), etc. were broadcasted on the surface of nutrition bowls filled with soil and fully covered by soil. The foregoing well-prepared nutrition bowls were then placed in a cultivation box with water filled to a suitable height to keep the soil in the nutrition bowls moist. A test compound of the present invention was individually dissolved with acetone, then diluted into solution of a certain concentration using a certain amount of water, and sprayed using a spray tower. The plants were placed on a greenhouse seedbed and cultured for 15 days, and the experimental results were then collected. The compound was applied at 120, 60, 30 and 15 g a.i./ha in triplicate, and the results were averaged.

[4] = system: Huaidao (rice cultivar); assay: Seedling stage sealing experiment for water-seeding (crop safety); details: 120 g a.i./ha, 15 days, fresh weight control rate; for Huaidao (rice cultivar) plant damage level (growth control rate): spray, seedling stage sealing for water-seeding
Summary of the method: as §1

[5] = spray, seedling stage sealing for water-seeding

Row | SMILES | Echinochloa crusgalli activity level (growth control rate) ([1]; seedling stage sealing) | Echinochloa phyllopogon activity level (growth control rate) ([2]; seedling stage sealing) | Leptochloa chinensis activity level (growth control rate) [3] | Echinochloa crusgalli activity level (growth control rate) [1, 5] | Echinochloa phyllopogon activity level (growth control rate) [2, 5] | Huaidao (rice cultivar) plant damage level (growth control rate) [4] | Huaidao (rice cultivar) plant damage level ([4]; seedling stage sealing)
1 | CC(C)c1cccc([C@H]2CN(C)C(=O)[C@@H]2C(=O)Nc2cnn(C)c2Cl)c1 [20′] | 9 | 8 (Level 8: growth control rate greater than or equal to 90% and less than 100%) | 9 | – | – | – | –
2 | COc1cccc([C@H]2CN(C)C(=O)[C@@H]2C(=O)Nc2cnn(C)c2Cl)c1 [28′] | 8 (Level 8: growth control rate greater than or equal to 90% and less than 100%) | 6 (Level 6: growth control rate greater than or equal to 70% and less than 80%) | 9 | – | – | – | –
3 | CN1C[C@H](c2cccc(OC(F)(F)F)c2)[C@@H](C(=O)Nc2cnn(C)c2Cl)C1=O [33′] | 9 | 8 (Level 8: growth control rate greater than or equal to 90% and less than 100%) | 9 | – | – | – | –
4 | CN1C[C@H](c2cccc(Oc3ccccc3)c2)[C@@H](C(=O)Nc2cnn(C)c2Cl)C1=O [50′] | – | – | 6 (Level 6: growth control rate greater than or equal to 70% and less than 80%) | – | – | – | –
5 | COc1cc([C@H]2CN(C)C(=O)[C@@H]2C(=O)Nc2cnn(C)c2Cl)cc(C(F)(F)F)c1 [75′] | 9 | 6 (Level 6: growth control rate greater than or equal to 70% and less than 80%) | 9 | – | – | – | –
6 | CN1C[C@H](c2cccc(C(F)(F)F)c2)[C@@H](C(=O)Nc2cnn(CCF)c2Cl)C1=O [98′] | 9 | 9 | 9 | – | – | – | –
7 | CN1C[C@H](c2cccc(C(F)(F)F)c2)[C@@H](C(=O)Nc2cnn(C)c2Br)C1=O [120′] | 9 | 8 (Level 8: growth control rate greater than or equal to 90% and less than 100%) | 9 | – | – | – | –
8 | CN1C[C@H](c2cccc(I)c2)[C@@H](C(=O)Nc2cnn(C)c2Cl)C1=O [125′] | 9 | 9 | 9 | – | – | – | –
9 | CN1C[C@H](c2cccc(Br)c2)[C@@H](C(=O)Nc2cnn(C)c2Cl)C1=O [126′] | 9 | 9 | 9 | – | – | – | –
10 | C=Cc1cccc([C@H]2CN(C)C(=O)[C@@H]2C(=O)Nc2cnn(C)c2Cl)c1 [149′] | 5 (Level 5: growth control rate greater than or equal to 50% and less than 70%) | – | 5 (Level 5: growth control rate greater than or equal to 50% and less than 70%) | – | – | – | –
11 | CN1C[C@H](c2cccc(C(F)(F)F)c2)[C@@H](C(=O)Nc2cnn(C(C)(C)C)c2Cl)C1=O [157′] | 5 (Level 5: growth control rate greater than or equal to 50% and less than 70%) | – | 7 (Level 7: growth control rate greater than or equal to 80% and less than 90%) | – | – | – | –
12 | CN1C[C@H](c2cccc(C(F)(F)F)c2)[C@@H](C(=O)Nc2cnn(CC3CC3)c2Cl)C1=O [165′] | – | – | 6 (Level 6: growth control rate greater than or equal to 70% and less than 80%) | – | – | – | –
13 | COc1cc(OC)cc([C@H]2CN(C)C(=O)[C@@H]2C(=O)Nc2cnn(C)c2C2CC2)c1 [301′] | – | – | 6 (Level 6: growth control rate greater than or equal to 70% and less than 80%) | – | – | – | –
14 | COc1cc([C@H]2CN(C)C(=O)[C@@H]2C(=O)Nc2cnn(C)c2Cl)ccc1C(F)(F)F [316′] | 6 (Level 6: growth control rate greater than or equal to 70% and less than 80%) | – | 6 (Level 6: growth control rate greater than or equal to 70% and less than 80%) | – | – | – | –
15 | Cc1cc(Cl)cc([C@H]2CN(C)C(=O)[C@@H]2C(=O)Nc2cnn(C(F)F)c2Cl)c1 [505′] | – | – | – | 9 | 9 | 2 (Level 2: growth control rate greater than or equal to 10% and less than 20%) | –
16 | Cc1cc(Cl)cc([C@H]2CN(C)C(=O)[C@@H]2C(=O)Nc2cnn(C)c2C2CC2)c1 [506′] | – | – | – | 9 | 9 | 0 | –
17 | CN1C[C@H](c2cc(F)cc(Cl)c2)[C@@H](C(=O)Nc2cnn(C)c2Cl)C1=O [507′] | – | – | – | 9 | 9 | 0 | –
18 | CN1C[C@H](c2cc(C(F)(F)F)cc(C(F)(F)F)c2)[C@@H](C(=O)Nc2cnn(C)c2C2CC2)C1=O [510′] | – | – | – | 9 | 9 | 2 (Level 2: growth control rate greater than or equal to 10% and less than 20%) | –
19 | CN1C[C@H](c2cc(Br)cc(C(F)F)c2)[C@@H](C(=O)Nc2cnn(C)c2Cl)C1=O [511′] | – | – | – | 9 | 6 (Level 6: growth control rate greater than or equal to 70% and less than 80%) | 0 | –
20 | CN1C[C@H](c2cc(Br)cc(C(F)F)c2)[C@@H](C(=O)Nc2cnn(C(F)F)c2Cl)C1=O [512′] | – | – | – | 9 | 7 (Level 7: growth control rate greater than or equal to 80% and less than 90%) | 0 | –
21 | CN1C[C@H](c2cc(Br)cc(C(F)(F)F)c2)[C@@H](C(=O)Nc2cnn(C)c2C2CC2)C1=O [514′] | – | – | – | 9 | 6 (Level 6: growth control rate greater than or equal to 70% and less than 80%) | 0 | –
22 | Cc1cc([C@H]2CN(C)C(=O)[C@@H]2C(=O)Nc2cnn(C)c2Br)cc(C)c1C [516′] | – | – | – | 9 | 9 | 0 | –
23 | Cc1cc([C@H]2CN(C)C(=O)[C@@H]2C(=O)Nc2cnn(C)c2C#N)cc(C)c1C [518′] | – | – | – | 9 | 9 | 0 | –
24 | CN1C[C@H](c2cc(Cl)cc(Cl)c2)[C@@H](C(=O)Nc2cnn(C)c2Cl)C1=O [519′] | – | – | – | 9 | 9 | 1 (Level 1: growth control rate less than 10%) | –
25 | Cc1csc([C@H]2CN(C)C(=O)[C@@H]2C(=O)Nc2cnn(C)c2Cl)c1 [520′] | – | – | – | 9 | 7 (Level 7: growth control rate greater than or equal to 80% and less than 90%) | 0 | –
26 | CN1CC(c2cccc(OCC3CC3)c2)C(C(=O)Nc2cnn(C)c2Cl)C1=O (stereo not drawn) [Compound 39] | 6 (Level 6: growth control rate greater than or equal to 70% and less than 80%) | – | 9 | – | – | – | –
27 | CN1CC(c2cccc(OC3CCCC3)c2)C(C(=O)Nc2cnn(C)c2Cl)C1=O (stereo not drawn) [Compound 41] | 5 (Level 5: growth control rate greater than or equal to 50% and less than 70%) | – | 6 (Level 6: growth control rate greater than or equal to 70% and less than 80%) | – | – | – | –
28 | CN1CC(c2cccc(C(F)(F)F)c2)C(C(=O)Nc2c(Cl)nn(C)c2Cl)C1=O (stereo not drawn) [Compound 94] | 5 (Level 5: growth control rate greater than or equal to 50% and less than 70%) | 5 (Level 5: growth control rate greater than or equal to 50% and less than 70%) | – | – | – | – | 0
29 | Cn1ncc(NC(=O)C2C(=O)NCC2c2cccc(C(F)(F)F)c2)c1Cl (stereo not drawn) [Compound 100] | 6 (Level 6: growth control rate greater than or equal to 70% and less than 80%) | – | 6 (Level 6: growth control rate greater than or equal to 70% and less than 80%) | – | – | – | –
30 | Cc1cc(C2CN(C)C(=O)C2C(=O)Nc2cnn(C)c2C(F)(F)F)cc(C)c1C (stereo not drawn) [Compound 517] | – | – | – | 9 | 9 | 0 | –
